Test results from the CheMixHub viscosity set.
± gives the uncertainty stated by the source.

Experiment: xn = mol fraction of the nth substance listed
Settings: 101 kPa

CS(C)=O + CC#N
viscosity (298 K, x1 = 0.2): 0.5206 ± 0.04 mPa·s | viscosity (298 K, x1 = 0.4): 0.8409 ± 0.04 mPa·s | viscosity (298 K, x1 = 0.6): 1.16 ± 0.041 mPa·s | viscosity (298 K, x1 = 0.8): 1.42 ± 0.041 mPa·s | viscosity (298.15 K, x1 = 0.2): 0.477 ± 0.01 mPa·s | viscosity (298.15 K, x1 = 0.4): 0.687 ± 0.016 mPa·s | viscosity (298.15 K, x1 = 0.6): 0.987 ± 0.022 mPa·s | viscosity (298.15 K, x1 = 0.8): 1.42 ± 0.029 mPa·s | viscosity (298.15 K, x2 = 0.0249): 1.911 ± 0.029 mPa·s | viscosity (298.15 K, x2 = 0.0518): 1.824 ± 0.028 mPa·s | viscosity (298.15 K, x2 = 0.0759): 1.75 ± 0.027 mPa·s | viscosity (298.15 K, x2 = 0.1079): 1.658 ± 0.025 mPa·s | viscosity (298.15 K, x2 = 0.157): 1.527 ± 0.024 mPa·s | viscosity (298.15 K, x2 = 0.1998): 1.422 ± 0.022 mPa·s | viscosity (298.15 K, x2 = 0.2609): 1.281 ± 0.02 mPa·s | viscosity (298.15 K, x2 = 0.3034): 1.188 ± 0.019 mPa·s | viscosity (298.15 K, x2 = 0.3548): 1.082 ± 0.017 mPa·s | viscosity (298.15 K, x2 = 0.411): 0.9742 ± 0.016 mPa·s | viscosity (298.15 K, x2 = 0.4696): 0.8699 ± 0.015 mPa·s | viscosity (298.15 K, x2 = 0.5084): 0.8053 ± 0.014 mPa·s | viscosity (298.15 K, x2 = 0.5566): 0.7292 ± 0.013 mPa·s | viscosity (298.15 K, x2 = 0.6053): 0.6586 ± 0.011 mPa·s | viscosity (298.15 K, x2 = 0.6666): 0.5821 ± 0.01 mPa·s | viscosity (298.15 K, x2 = 0.7114): 0.5345 ± 0.0097 mPa·s | viscosity (298.15 K, x2 = 0.7688): 0.4819 ± 0.0089 mPa·s | viscosity (298.15 K, x2 = 0.8081): 0.4514 ± 0.0085 mPa·s | viscosity (298.15 K, x2 = 0.851): 0.4225 ± 0.008 mPa·s | viscosity (298.15 K, x2 = 0.9009): 0.3934 ± 0.0076 mPa·s | viscosity (298.15 K, x2 = 0.9502): 0.3658 ± 0.0072 mPa·s | viscosity (303.15 K, x2 = 0.0249): 1.762 ± 0.027 mPa·s | viscosity (303.15 K, x2 = 0.0518): 1.684 ± 0.026 mPa·s | viscosity (303.15 K, x2 = 0.0759): 1.617 ± 0.025 mPa·s | viscosity (303.15 K, x2 = 0.1079): 1.531 ± 0.024 mPa·s | viscosity (303.15 K, x2 = 0.157): 1.406 ± 0.022 mPa·s | viscosity (303.15 K, x2 = 0.1998): 1.306 ± 0.021 mPa·s | viscosity (303.15 K, x2 = 0.3034): 1.085 ± 0.018 mPa·s | viscosity (303.15 K, x2 = 0.3548): 0.9867 ± 0.016 mPa·s | viscosity (303.15 K, x2 = 0.411): 0.8848 ± 0.015 mPa·s | viscosity (303.15 K, x2 = 0.4696): 0.7875 ± 0.013 mPa·s | viscosity (303.15 K, x2 = 0.5084): 0.7285 ± 0.013 mPa·s | viscosity (303.15 K, x2 = 0.5566): 0.6595 ± 0.011 mPa·s | viscosity (303.15 K, x2 = 0.6053): 0.5945 ± 0.011 mPa·s | viscosity (303.15 K, x2 = 0.6666): 0.5266 ± 0.0096 mPa·s | viscosity (303.15 K, x2 = 0.7114): 0.4841 ± 0.009 mPa·s | viscosity (303.15 K, x2 = 0.7688): 0.4392 ± 0.0083 mPa·s | viscosity (303.15 K, x2 = 0.8081): 0.4129 ± 0.0079 mPa·s | viscosity (303.15 K, x2 = 0.851): 0.3905 ± 0.0075 mPa·s | viscosity (303.15 K, x2 = 0.9009): 0.368 ± 0.0072 mPa·s | viscosity (303.15 K, x2 = 0.9502): 0.3478 ± 0.0069 mPa·s | viscosity (308 K, x1 = 0.4): 0.6302 ± 0.04 mPa·s | viscosity (308 K, x1 = 0.6): 0.8402 ± 0.04 mPa·s | viscosity (308 K, x1 = 0.8): 1.161 ± 0.041 mPa·s | viscosity (308.15 K, x2 = 0.0249): 1.61 ± 0.025 mPa·s | viscosity (308.15 K, x2 = 0.0518): 1.544 ± 0.024 mPa·s | viscosity (308.15 K, x2 = 0.0759): 1.485 ± 0.023 mPa·s | viscosity (308.15 K, x2 = 0.1079): 1.405 ± 0.022 mPa·s | viscosity (308.15 K, x2 = 0.1998): 1.194 ± 0.019 mPa·s | viscosity (308.15 K, x2 = 0.2609): 1.066 ± 0.017 mPa·s | viscosity (308.15 K, x2 = 0.3034): 0.9838 ± 0.016 mPa·s | viscosity (308.15 K, x2 = 0.3548): 0.8905 ± 0.015 mPa·s | viscosity (308.15 K, x2 = 0.411): 0.7978 ± 0.013 mPa·s | viscosity (308.15 K, x2 = 0.4696): 0.7092 ± 0.012 mPa·s | viscosity (308.15 K, x2 = 0.5084): 0.6554 ± 0.011 mPa·s | viscosity (308.15 K, x2 = 0.5566): 0.5949 ± 0.011 mPa·s | viscosity (308.15 K, x2 = 0.6053): 0.5379 ± 0.0098 mPa·s | viscosity (308.15 K, x2 = 0.6666): 0.4786 ± 0.0089 mPa·s | viscosity (308.15 K, x2 = 0.7114): 0.4428 ± 0.0083 mPa·s | viscosity (308.15 K, x2 = 0.7688): 0.4048 ± 0.0078 mPa·s | viscosity (308.15 K, x2 = 0.8081): 0.3833 ± 0.0074 mPa·s | viscosity (308.15 K, x2 = 0.851): 0.3645 ± 0.0072 mPa·s | viscosity (308.15 K, x2 = 0.9009): 0.3459 ± 0.0069 mPa·s | viscosity (308.15 K, x2 = 0.9502): 0.3285 ± 0.0066 mPa·s | viscosity (313.15 K, x2 = 0.0249): 1.484 ± 0.023 mPa·s | viscosity (313.15 K, x2 = 0.0518): 1.425 ± 0.022 mPa·s | viscosity (313.15 K, x2 = 0.0759): 1.371 ± 0.022 mPa·s | viscosity (313.15 K, x2 = 0.1079): 1.298 ± 0.021 mPa·s | viscosity (313.15 K, x2 = 0.1998): 1.098 ± 0.018 mPa·s | viscosity (313.15 K, x2 = 0.2609): 0.9759 ± 0.016 mPa·s | viscosity (313.15 K, x2 = 0.3034): 0.898 ± 0.015 mPa·s | viscosity (313.15 K, x2 = 0.3548): 0.8098 ± 0.014 mPa·s | viscosity (313.15 K, x2 = 0.411): 0.7219 ± 0.012 mPa·s | viscosity (313.15 K, x2 = 0.4696): 0.6398 ± 0.011 mPa·s | viscosity (313.15 K, x2 = 0.5084): 0.591 ± 0.01 mPa·s | viscosity (313.15 K, x2 = 0.5566): 0.5366 ± 0.0097 mPa·s | viscosity (313.15 K, x2 = 0.6053): 0.4862 ± 0.009 mPa·s | viscosity (313.15 K, x2 = 0.6666): 0.435 ± 0.0082 mPa·s | viscosity (313.15 K, x2 = 0.7114): 0.4044 ± 0.0078 mPa·s | viscosity (313.15 K, x2 = 0.7688): 0.3727 ± 0.0073 mPa·s | viscosity (313.15 K, x2 = 0.8081): 0.3554 ± 0.0071 mPa·s | viscosity (313.15 K, x2 = 0.851): 0.3396 ± 0.0068 mPa·s | viscosity (313.15 K, x2 = 0.9009): 0.3257 ± 0.0066 mPa·s | viscosity (318 K, x1 = 0.2): 0.3814 ± 0.04 mPa·s | viscosity (318 K, x1 = 0.4): 0.4513 ± 0.04 mPa·s | viscosity (318 K, x1 = 0.8): 0.8203 ± 0.04 mPa·s | viscosity (318.15 K, x2 = 0.0249): 1.348 ± 0.021 mPa·s | viscosity (318.15 K, x2 = 0.0518): 1.295 ± 0.021 mPa·s | viscosity (318.15 K, x2 = 0.0759): 1.247 ± 0.02 mPa·s | viscosity (318.15 K, x2 = 0.1079): 1.18 ± 0.019 mPa·s | viscosity (318.15 K, x2 = 0.157): 1.082 ± 0.018 mPa·s | viscosity (318.15 K, x2 = 0.1998): 1 ± 0.016 mPa·s | viscosity (318.15 K, x2 = 0.2609): 0.8875 ± 0.015 mPa·s | viscosity (318.15 K, x2 = 0.3034): 0.8161 ± 0.014 mPa·s | viscosity (318.15 K, x2 = 0.3548): 0.7348 ± 0.013 mPa·s | viscosity (318.15 K, x2 = 0.411): 0.6547 ± 0.011 mPa·s | viscosity (318.15 K, x2 = 0.4696): 0.5794 ± 0.01 mPa·s | viscosity (318.15 K, x2 = 0.5084): 0.5348 ± 0.0097 mPa·s | viscosity (318.15 K, x2 = 0.5566): 0.4864 ± 0.009 mPa·s | viscosity (318.15 K, x2 = 0.6053): 0.4403 ± 0.0083 mPa·s | viscosity (318.15 K, x2 = 0.6666): 0.3971 ± 0.0077 mPa·s | viscosity (318.15 K, x2 = 0.7114): 0.37 ± 0.0073 mPa·s | viscosity (318.15 K, x2 = 0.7688): 0.3423 ± 0.0069 mPa·s | viscosity (318.15 K, x2 = 0.8081): 0.3298 ± 0.0067 mPa·s | viscosity (318.15 K, x2 = 0.851): 0.3178 ± 0.0065 mPa·s | viscosity (318.15 K, x2 = 0.9009): 0.3062 ± 0.0063 mPa·s
